These are literature values, as cited in EP3815682A1, “A PERK KINASE INHIBITOR FOR TREATING DISEASES ASSOCIATED WITH ENDOPLASMIC RETICULUM STRESS” (Uniwersytet Medyczny w Lodzi, priority 2019, dated 2021).

Data set [1] concerns the target T1, PERK kinase and eIF2α protein phosphorylation (Homo sapiens, UniProt Q9NZJ5).
T1 sequence (Q9NZJ5 30-1116): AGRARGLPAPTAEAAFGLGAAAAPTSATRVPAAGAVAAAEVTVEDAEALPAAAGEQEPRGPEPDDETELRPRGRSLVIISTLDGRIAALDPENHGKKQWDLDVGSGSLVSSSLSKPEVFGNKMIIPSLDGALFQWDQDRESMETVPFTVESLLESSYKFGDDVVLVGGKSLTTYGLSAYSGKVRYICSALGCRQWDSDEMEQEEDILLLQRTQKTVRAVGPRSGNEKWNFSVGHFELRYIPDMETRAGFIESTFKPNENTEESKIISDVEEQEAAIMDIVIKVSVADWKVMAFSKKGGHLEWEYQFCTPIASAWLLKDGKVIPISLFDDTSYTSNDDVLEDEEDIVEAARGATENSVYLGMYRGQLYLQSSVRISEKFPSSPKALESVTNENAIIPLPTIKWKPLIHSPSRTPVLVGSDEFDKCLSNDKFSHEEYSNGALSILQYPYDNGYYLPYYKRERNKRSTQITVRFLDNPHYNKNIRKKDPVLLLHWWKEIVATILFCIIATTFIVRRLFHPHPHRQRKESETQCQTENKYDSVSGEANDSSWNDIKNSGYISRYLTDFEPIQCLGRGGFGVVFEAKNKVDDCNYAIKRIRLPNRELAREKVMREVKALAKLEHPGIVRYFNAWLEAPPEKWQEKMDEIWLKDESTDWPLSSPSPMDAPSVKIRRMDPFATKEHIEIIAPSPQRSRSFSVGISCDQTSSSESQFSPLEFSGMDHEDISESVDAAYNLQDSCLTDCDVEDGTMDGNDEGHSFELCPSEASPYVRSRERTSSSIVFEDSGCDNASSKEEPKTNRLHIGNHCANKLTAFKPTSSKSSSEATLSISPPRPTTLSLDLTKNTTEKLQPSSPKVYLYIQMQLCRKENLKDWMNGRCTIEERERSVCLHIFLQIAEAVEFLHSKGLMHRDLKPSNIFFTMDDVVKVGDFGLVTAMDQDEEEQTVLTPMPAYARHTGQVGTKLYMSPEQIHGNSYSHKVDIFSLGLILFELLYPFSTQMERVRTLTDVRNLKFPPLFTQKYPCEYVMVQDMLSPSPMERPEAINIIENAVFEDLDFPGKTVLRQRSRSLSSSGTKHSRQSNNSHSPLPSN
The settings on record: Atkins et al.

The test system of data set [2] is pancreatic cells. The settings on record: reason for not entering clinical trials.
Data set [3] relates to pancreatic cells.
The conditions of data set [4]: not told.
Setting [5] is: animals administered the inhibitor.

For `Cc1cccc(CC(=O)N2CCc3c2ccc(-c2cn(C)c4ncnc(N)c24)c3F)n1` [GSK2656157], in data set [1], the “inhibition of PERK kinase and eIF2α protein phosphorylation” value was “effective inhibition”. Also, in the data set on pancreatic cells [2], the “activity on pancreatic cells” value is “non-selective activity also on pancreatic cells”.
Take `Cn1cc(-c2ccc3c(c2)CCN3C(=O)Cc2cccc(C(F)(F)F)c2)c2c(N)ncnc21` [GSK2606414]: the “level of phosphorylated forms of PERK and eIF2α” value in the data set on PERK and eIF2α (compared with mice not administered the inhibitor) is reported as “substantially lower”. In addition, in the data set on PERK and eIF2α (mouse, in vivo), the “protein synthesis in cells” value is recorded as “temporary restoration of protein synthesis”. In the data set with pancreatic cells [3] (setting [5]), the glycemia result is reported as “hyperglycemia” and the weight result was “significant weight loss”. Moreover, the “effect on pancreatic cells” value in the data set on pancreatic cells [3] (mice) is “cytotoxic effect”.
As for `O=C(/C=C/c1ccccc1)NC(NC(=S)Nc1cccc2cccnc12)C(Cl)(Cl)Cl` (stereo not shown) [Salubrinal], the survival entry in the data set with eIF2α phosphorylation (compared with animals that did not receive the compound) was “died quicker”. The eIF2α phosphorylation entry with eIF2α phosphorylation (mouse, in vivo) was “increase”.
For `O=C(COc1ccc(Cl)cc1)NC1CCC(NC(=O)COc2ccc(Cl)cc2)CC1` (stereo not shown) [ISRIB], the “permeability of the blood-brain barrier” value in data set [4] is given as “good permeability”.
